Assay results from patent US20090176786A1, “Benzoylurea Compounds and Use Thereof” (priority 2005, published 2009).
Where two headings read alike, the source gives them in different places.

Experiments:
Format in all cases: in vivo
[1] = system: Plutella xylostella; experiment: Test Example 2: cabbage root immersion (systemic), dead pest rate of Plutella xylostella larvae; details: for pest or weed control at 5 ppm / pest or weed control at 25 ppm / pest or weed control at 1 ppm: Plutella xylostella, 120 h; for pest or weed control at 5 ppm: read-out: dead pest rate; for pest or weed control at 1 ppm: test concentration of 1 ppm
Protocol: In 0.25 mL of a mixture solution of Sorgen TW-20 (manufactured by Daiichi Industries Pharmaceuticals, Co., Ltd.) and acetone (mixture volume ratio; Sorgen TW-20:acetone=1:19), 2.5 mg of the present compound (1), (2), (3), (4), (7), (10), (11), (12), (16), (18), (19), (20), (21), (22), (25), (30), (36), (37), (41), (42), (52), (54), (56), (57), (60), (62), (105) or (109) was dissolved. The solution was diluted with ion-exchanged water so that the active ingredient concentration became to a predetermined concentration to prepare a pesticidal solution for test of the test compound. The root part of cabbages in the fourth leaf period were washed with tap water to remove soils, and then immersed in the pesticidal solution for test. After 5 days from immersion of the root part, the root part was removed, and the leaves and stems were put in a cup (volume; 180 mL). In the cup 10 second-instar larvae of Plutella xylostella were released, and the cup was stored at 24° C. After 5 days, the number of dead pests was counted, and the dead pest rate was calculated by the following equation:
(§1) Dead pest rate(%)=(the number of dead pests/the number of tested pests)×100
The test concentrations of the other present compounds were 25 ppm.

[2] = system: Frankliniella occidentalis; experiment: Test Example 4: spray on cucumber, control value against Frankliniella occidentalis larvae; details: 168 h, spray 20 ml/cup on cucumber, 30 larvae, seven days after spraying; for pest or weed control at 12.5 ppm: test concentration 12.5 ppm; for pest or weed control at 50 ppm: test concentration 50 ppm
Protocol: The obtained preparation was diluted with water so that the active ingredient concentration became to a predetermined concentration to prepare a spray solution for test. […] were planted in polyethylene cups, and were grown until the first true leaf was developed. The spray solution for test prepared above was sprayed at the rate of 20 ml/cup on the cucumber. After the pesticidal solution sprayed onto the cucumber was dried, the first true leaf was cut off and then placed on a filter paper (diameter: 70 mm) containing water in a polyethylene cup (diameter: 110 mm). On the cucumber leaf, 30 larvae of Frankliniella occidentalis were released, and the polyethylene cup was capped. Seven days after spraying, the number of pests surviving on the cucumber leaf was counted, and a control value was calculated by the following equation: Control value(%)={1−(Cb×Tai)/(Cai×Tb)}×100 wherein, each symbol has following meaning: Cb: the number of pests before treatment in a non-treated area Cai: the number of pests at the time of observation in a non-treated area Tb: the number of pests before treatment in a treated-area Tai: the number of pests at the time of observation in a treated-area. […] The test concentrations of the other present compounds were 50 ppm.

[3] = system: Spondoptela litura; experiment: Test Example 3: treated artificial diet (Insecta LF), dead pest rate of Spondoptela litura larvae; details: 144 h, 2 mL on Insecta LF diet, 5 fourth-instar larvae, after 6 days
Description: Ten parts of the present compound (1) to (5), (7) to (13), (18) to (33), (35) to (49), (52) to (56), (58) to (61), (71), (73) to (77), (79), (80), (82), (83), (93), (94), (95), (96), (97), (100) to (109), (111), (112), (115), (117), (119), (121), or (123) to (133), 35 parts of white carbon containing 50 parts of polyoxyethylene alkyl ether sulfate ammonium salt, and 55 parts of water were mixed, and finely ground by a wet grinding method to obtain a preparation. The obtained preparation was diluted with water so that the active ingredient concentration became to 500 ppm to prepare a pesticidal solution for test. On the bottom of a polyethylene cup having a diameter of 5.5 cm, a filter paper having a diameter of 5.5 cm was placed, on which Insecta LF (Nippon Agriculture Industries, Co., Ltd.) sliced in a thickness of 6 mm and further cut half was laid, and to which 2 mL of the above-described pesticidal solution for test was added. After air-dried, 5 fourth-instar larvae of Spondoptela litura were released in the cup, and the cup was capped. After 6 days, the number of dead pests was counted, and the dead pest rate was calculated by the following equation:
as §1

[4] = test concentration of 5 ppm, root immersion 5 days, 10 second-instar larvae, after 5 days at 24° C.
[5] = test concentration 25 ppm, root immersion 5 days, 10 second-instar larvae, after 5 days at 24° C.
[6] = root immersion 5 days, 10 second-instar larvae, after 5 days at 24° C.

CN(C(=O)NC(=O)c1c(F)cccc1F)c1ccc(SC(F)(F)F)cc1 [(7)]
pest or weed control at 5 ppm [1, 4]: 100%
pest or weed control at 12.5 ppm [2]: 100%

COCN(C(=O)c1c(F)cccc1F)C(=O)N(C)c1ccc(SC(F)(F)F)cc1F [(11)]
pest or weed control at 25 ppm [1, 5]: 100%

CCSc1ccc(N(C)C(=O)N(C)C(=O)c2c(F)cccc2F)c(F)c1 [(16)]
pest or weed control at 25 ppm [1, 5]: 100%

CN(C(=O)NC(=O)c1c(F)cccc1F)c1ccc([S+]([O-])C(F)(F)F)cc1F (stereo not shown) [(18)]
pest or weed control at 1 ppm [1, 6]: 100%

CN(C(=O)c1c(F)cccc1F)C(=O)N(C)c1ccc([S+]([O-])C(F)(F)F)cc1F (stereo not shown) [(19)]
pest or weed control at 1 ppm [1, 6]: 100%

CN(C(=O)c1c(F)cccc1F)C(=O)N(C)c1ccc(S(=O)(=O)C(F)(F)F)cc1F [(21)]
pest or weed control at 1 ppm [1, 6]: 100%

CN(C(=O)c1c(F)cccc1F)C(=O)N(C)c1ccc(SC(F)(F)C(F)(F)C(F)(F)F)cc1F [(22)]
pest or weed control at 5 ppm [1]: 100%
pest or weed control at 3.2 ppm ([2]; test concentration 3.2 ppm): 100%

CN(C(=O)NC(=O)c1c(F)cccc1Cl)c1ccc(SC(F)(F)C(F)F)cc1F [(23)]
pest or weed control at 12.5 ppm [2]: 100%

CN(C(=O)NC(=O)c1c(F)cccc1F)c1ccc([S+]([O-])C(F)(F)C(F)F)cc1F (stereo not shown) [(24)]
pest or weed control at 12.5 ppm [2]: 100%

CN(C(=O)NC(=O)c1c(F)cccc1F)c1ccc(S(=O)(=O)C(F)(F)C(F)F)cc1F [(25)]
pest or weed control at 5 ppm [1, 4]: 100%
pest or weed control at 12.5 ppm [2]: 100%

CN(C(=O)NC(=O)c1c(F)cccc1F)c1ccc(SC(F)(F)C(F)(F)C(F)(F)F)cc1F [(28)]
pest or weed control at 50 ppm [2]: 100%

CN(C(=O)NC(=O)c1c(F)cccc1Cl)c1ccc(SC(F)(F)C(F)(F)C(F)(F)F)cc1F [(29)]
pest or weed control at 50 ppm [2]: 100%

CN(C(=O)NC(=O)c1c(F)cccc1F)c1ccc(SC(F)(F)C(F)(F)F)cc1F [(30)]
pest or weed control at 5 ppm [1, 4]: 100%
pest or weed control at 50 ppm [2]: 100%

CN(C(=O)NC(=O)c1c(F)cccc1F)c1ccc(SC(F)(F)C(F)C(F)(F)F)cc1F (stereo not shown) [(31)]
pest or weed control at 50 ppm [2]: 100%

CN(C(=O)NC(=O)c1c(F)cccc1F)c1ccc(SC(F)F)cc1Cl [(34)]
pest or weed control at 50 ppm [2]: 100%

Cc1cc(SC(F)(F)F)ccc1N(C)C(=O)NC(=O)c1c(F)cccc1F [(36)]
pest or weed control at 5 ppm [1, 4]: 100%
pest or weed control at 12.5 ppm [2]: 100%

CN(C(=O)NC(=O)c1c(F)cccc1F)c1ccc(C(=O)OC(C)(C)C)cc1F [(37)]
dead pest rate [1, 5]: 100%

CN(C(=O)c1c(F)cccc1F)C(=O)N(C)c1ccc(S(=O)(=O)C(F)(F)C(F)F)cc1F [(40)]
pest or weed control at 12.5 ppm [2]: 100%

CCN(C(=O)N(C)C(=O)c1c(F)cccc1F)c1ccc(SC(F)(F)F)cc1F [(41)]
pest or weed control at 25 ppm [1, 5]: 100%
pest or weed control at 50 ppm [2]: 100%

Cc1cc(SC(F)(F)F)ccc1N(C)C(=O)N(C)C(=O)c1c(F)cccc1F [(42)]
pest or weed control at 25 ppm [1, 5]: 100%

CN(C(=O)c1c(F)cccc1Cl)C(=O)N(C)c1ccc(SC(F)(F)C(F)(F)C(F)(F)F)cc1F [(45)]
pest or weed control at 50 ppm [2]: 100%

CN(C(=O)c1c(F)cccc1F)C(=O)N(C)c1ccc(SC(F)(F)C(F)C(F)(F)F)cc1F (stereo not shown) [(47)]
pest or weed control at 50 ppm [2]: 100%

Cc1c(SC(F)(F)C(F)(F)F)ccc(N(C)C(=O)N(C)C(=O)c2c(F)cccc2F)c1C [(49)]
pest or weed control at 50 ppm [2]: 100%

CC(=O)N(C(=O)c1c(F)cccc1F)C(=O)N(C)c1ccc(SC(F)(F)F)cc1F [(52)]
pest or weed control at 5 ppm [1, 4]: 100%

CN(C(=O)N(C(=O)c1c(F)cccc1F)S(C)(=O)=O)c1ccc(SC(F)(F)F)cc1F [(54)]
pest or weed control at 25 ppm [1, 5]: 100%

CCN(C(=O)c1c(F)cccc1F)C(=O)N(C)c1ccc(SC(F)(F)F)cc1F [(56)]
pest or weed control at 25 ppm [1, 5]: 100%
pest or weed control at 50 ppm [2]: 100%

CN(C(=O)NC(=O)c1c(F)cccc1F)c1ccc(SC(F)F)cc1F [(57)]
pest or weed control at 5 ppm [1, 4]: 100%

C#CCN(C(=O)c1c(F)cccc1F)C(=O)N(C)c1ccc(SC(F)(F)F)cc1F [(60)]
pest or weed control at 25 ppm [1, 5]: 100%

CN(C(=O)N(C(=O)c1c(F)cccc1F)C1CC1)c1ccc(SC(F)(F)F)cc1F [(69)]
pest or weed control at 50 ppm [2]: 100%

CN(C(=O)N(CC1CC1)C(=O)c1c(F)cccc1F)c1ccc(SC(F)(F)F)cc1F [(71)]
pest or weed control at 500 ppm [3]: 100%
pest or weed control at 50 ppm [2]: 100%

CSCCN(C(=O)c1c(F)cccc1F)C(=O)N(C)c1ccc(SC(F)(F)F)cc1F [(73)]
pest or weed control at 50 ppm [2]: 100%

CN(C(=O)N(Cc1ccccn1)C(=O)c1c(F)cccc1F)c1ccc(SC(F)(F)F)cc1F [(76)]
pest or weed control at 50 ppm [2]: 100%

CN(C(=O)N(C(=O)c1c(F)cccc1F)N1CCOCC1)c1ccc(SC(F)(F)F)cc1F [(79)]
pest or weed control at 500 ppm [3]: 100%

CN(C(=O)N(CCN1CCOCC1)C(=O)c1c(F)cccc1F)c1ccc(SC(F)(F)F)cc1F [(80)]
pest or weed control at 500 ppm [3]: 100%

CN(C(=O)NC(=O)c1c(Cl)cccc1Cl)c1ccc(SC(F)(F)F)cc1F [(95)]
pest or weed control at 500 ppm [3]: 100%

CN(C(=O)c1c(Cl)cccc1Cl)C(=O)N(C)c1ccc(SC(F)(F)F)cc1F [(96)]
pest or weed control at 500 ppm [3]: 100%

CN(C(=O)c1c(F)cccc1F)C(=O)N(C)c1ccc(SC(F)(F)F)cc1Cl [(104)]
pest or weed control at 50 ppm [2]: 100%

Cc1cc(SC(F)(F)C(F)(F)F)ccc1N(C)C(=O)NC(=O)c1c(F)cccc1F [(105)]
pest or weed control at 25 ppm [1, 5]: 100%
pest or weed control at 50 ppm [2]: 100%

Cc1cc(SC(F)(F)C(F)(F)F)ccc1N(C)C(=O)N(C)C(=O)c1c(F)cccc1F [(106)]
pest or weed control at 50 ppm [2]: 100%

CN(C(=O)NC(=O)c1c(F)cccc1F)c1ccc(SC(F)(F)C(F)(F)F)cc1Cl [(107)]
pest or weed control at 50 ppm [2]: 100%

CN(C(=O)c1c(F)cccc1F)C(=O)N(C)c1ccc(SC(F)(F)C(F)(F)F)cc1Cl [(108)]
pest or weed control at 50 ppm [2]: 100%

CN(C(=O)NC(=O)c1c(F)cccc1F)c1ccc(SC(F)(F)C(F)OC(F)(F)F)cc1F (stereo not shown) [(109)]
pest or weed control at 25 ppm [1, 5]: 100%
pest or weed control at 50 ppm [2]: 100%

CN(C(=O)c1c(F)cccc1F)C(=O)N(C)c1ccc(SC(F)(F)C(F)OC(F)(F)F)cc1F (stereo not shown) [(110)]
pest or weed control at 50 ppm [2]: 100%

CN(C(=O)c1c(F)cccc1F)C(=O)N(C)c1ccc(SC(F)(F)F)cc1 [(117)]
pest or weed control at 500 ppm [3]: 100%
pest or weed control at 50 ppm [2]: 100%

COc1cccc(CN(C(=O)c2c(F)cccc2F)C(=O)N(C)c2ccc(SC(F)(F)F)cc2F)c1 [(119)]
pest or weed control at 500 ppm [3]: 100%

CSc1ccc(N(C)C(=O)NC(=O)c2c(F)cccc2F)c(C(F)(F)F)c1 [(121)]
pest or weed control at 500 ppm [3]: 100%

Cc1cc(SC(F)(F)C(F)F)ccc1N(C)C(=O)N(C)C(=O)c1c(F)cccc1F [(131)]
pest or weed control at 50 ppm [2]: 100%
